The results in this text go back to patent US10654852B2, “Antibiotics and methods of using same” (THE BROAD INSTITUTE, INC., priority 2016, dated 2020).

Data set [1] in a line: Plasma protein binding (PPB) assay. The data set is classed as in vitro ADME. The settings on record: % of free compound. As for the experimental part:
(§1) The activity profiles of compounds 17, 23, and 24 were assessed by various in vitro measurements. The minimum inhibitory concentration (MIC), MIC in the presence of normal human serum (NHS), microsome CLint, the % of free compounds following a plasma protein biding (PPB) assay, and the concentration of drug where the human-ether-à-go-go-related gene (hERG gene) channel block is halved (IC50(hERG)) were measured using standard in vitro protocols for compounds 17, 23, and 24. Unless otherwise indicated, measurements (e.g., microsomal clearance) were performed using a standard microsomal stability assay using LC/MS/MS techniques.

Data set [2] deals with Serratia marcescens Bizio ATCC-29021. Kind of data set: MIC (50% NHS). In kind it is cell-based. The settings on record: ATCC29021; Serratia marcescens Bizio ATCC-29021, 50% NHS.
Data set [3] relates to Staphylococcus aureus WX1-009. In words: MIC (50% NHS). The data set is classed as cell-based. The settings on record: WX1009; Staphylococcus aureus WX1-009, 50% NHS.
Data set [4] relates to Proteus mirabilis ATCC-29906. In words: MIC (50% NHS). In kind it is cell-based. The settings on record: ATCC29906; Proteus mirabilis ATCC-29906, 50% NHS.
In data set [5] the test system is Staphylococcus aureus NRS-384. In words: MIC (50% NHS). In kind it is cell-based. The settings on record: NRS384; Staphylococcus aureus NRS-384, 50% NHS.
Data set [6] relates to Escherichia coli ATCC-BAA-2340. Kind of data set: MIC (50% NHS). The settings on record: ATCCBAA2340; Escherichia coli ATCC-BAA-2340, 50% NHS. The data set is classed as cell-based.
In data set [7] the test system is Acinetobacter baumannii ATCC 17978. Kind of data set: MIC (50% NHS). The settings on record: ATCC17978; Acinetobacter baumannii ATCC 17978, 50% NHS. In kind it is cell-based.
Data set [8] concerns Enterobacter cloacae ATCC-BAA-1143. In words: MIC (50% NHS). The data set is classed as cell-based. The settings on record: ATCCBAA1143; Enterobacter cloacae ATCC-BAA-1143, 50% NHS.
For data set [9], the system named is Enterococcus faecalis ATCC-29212. In words: MIC (50% NHS). In kind it is cell-based. The settings on record: ATCC29212; Enterococcus faecalis ATCC-29212, 50% NHS.
The test system of data set [10] is Escherichia coli ATC-25922. Kind of data set: MIC, broth microdilution. In kind it is cell-based. The settings on record: ATC25922. An excerpt:
As used herein, the term “MIC” refers to minimum inhibitory concentrations. Minimum inhibitory concentrations may be determined by broth microdilution according to the Clinical and Laboratory Standards Institute guidelines (see, e.g., […]-A8. Methods for dilution antimicrobial susceptibility tests for bacteria that grow aerobically: approved standard, 8th Ed.; […] One example for measuring minimum inhibitory concentrations may be found in Reck et al., 2012, J. Med. Chem. 55:6916-6933, the disclosure of which is incorporated by reference. Inoculants may be incubated on blood agar plates for 18 to 24 hours. Incubation may occur at a temperature from about 35° C. to about 37° C. […] In serum supplemented experiments, the testing medium (e.g., DMSO solution) and human serum may be mixed. The ratio of testing medium to human serum may be 1:1 (vol:vol). Plates may be read by spectrophotometry at 620 nm. Unless indicated otherwise, all inhibitory concentrations recited in the specification relate to MICs. The MIC tests were based on broth microdilution method in CLSI-M7. […] Solutions of varying concentrations of DMSO were prepared in wells of a v-bottom 96-well plate (Axygen-WIPP02280). A multi-pipette was used to perform serial dilutions as necessary. From well to well, the drug concentrations were 6.4, 3.2, 1.6, 0.8, 0.4, 0.2, 0.1, 0.05, 0.025, 0.0125, 0.00625 and 0 mg/ml in DMSO. For extremely potent antibiotic, the starting concentrations were adjusted accordingly. This was the drug mother plate. Daughter plates were prepared by placing 98 μl of a testing medium into each well of a u-bottom 96-well plate (Costar 3788). An aliquot of each 2 μl solution from each well of the mother plate was then transferred into the corresponding wells of the daughter plate using a multi-pipette work station (CyBi®-SELMA). Testing media were selected based on CLSI-M7, M11 and […]. Cation adjusted Mueller Hinton Broth (CA-MHB-212322) was the testing medium for majority of bacterial species. […] The MIC values were determined and based on the standards of CLSI methods M7-A7, broth microdilution method. […]
Background: Dilution methods test growth across graded concentrations, often in twofold steps.

In data set [11] the test system is Enterobacter aerogenes ATCC-13048. Kind of data set: MIC (50% NHS). The data set is classed as cell-based. The settings on record: Klebsiella aerogenes, ATCC13048; Enterobacter aerogenes ATCC-13048, 50% NHS.
A short description of data set [12]: Microsomal stability assay, mouse CLint. In kind it is in vitro ADME. Details: unit not given here. The settings on record: mouse liver microsomes, 1 μM, 0.5 mg/ml microsomal protein. Here is the method: as §1
(§2) Test compounds were incubated at 37° C. with liver microsomes pooled from multiple donors at 1 μM in the presence of a NADPH regenerating system at 0.5 mg/ml microsomal protein. Positive of testosterone (a 3A4 substrate), propafenone (a 2D6 substrate), and diclofenac (a 2c9 substrate) were similarly incubated with microsomes in the presence of a NADPH regenerating system. Samples are removed at 0, 5, 10, 20, 30, and 60 minutes of incubation and immediately mixed with cold acetonitrile containing an internal standard (IS). Samples are then analyzed by LC/MS/MS to determine the disappearance of the test compound and are assessed based on the peak area ratios of analyte/IS (no standard curve).

For data set [13], the system named is Staphylococcus aureus NRS-100. Kind of data set: MIC (50% NHS). The data set is classed as cell-based. The settings on record: NRS100; Staphylococcus aureus NRS-100, 50% NHS.
A short description of data set [14]: Microsomal stability assay, human CLint. The settings on record: human liver microsomes, 1 μM, 0.5 mg/ml microsomal protein. The data set is classed as in vitro ADME. More on the design: unit not given here. Here is the method: as §1, §2
(In general: Liver microsomes are vesicles of endoplasmic reticulum, rich in cytochrome P450 enzymes.)

Molecules are shown by their SMILES. Values after ≈ are worked out from the molar mass of the structure shown.

Consider `CN1CC2CN(C(=O)Nc3cc(F)cc(F)c3)CC(C1)C2(O)c1ccc(-c2ccc(CN)cc2C#N)cc1` [Compound 23, (1R,5S,9r)-9-(4′-(aminomethyl)-2′-cyano-[1,1′-biphenyl]-4-yl)-N-(3,5-difluorophenyl)-9-hydroxy-7-methyl-3,7-diazabicyclo[3.3.1]nonane-3-carboxamide], for which, in [1], the fraction unbound was determined as 0.27. Also, the MIC was 4 µg/mL (≈ 7.73 µM) in data set [2]; ≤ 0.06 µg/mL in data set [3]; 4 µg/mL (≈ 7.73 µM) in [4]; 0.13 µg/mL (≈ 0.251 µM) in [5]; 0.25 µg/mL (≈ 0.483 µM) in data set [6]; 64 µg/mL (≈ 124 µM) in [7]. The MIC in data set [8] came out at 2 µg/mL (≈ 3.86 µM); in [9], 0.5 µg/mL (≈ 0.966 µM); in [10] it was 2 µg/mL (≈ 3.86 µM); in data set [11], 1 µg/mL (≈ 1.93 µM); in data set [13] it was 0.13 µg/mL (≈ 0.251 µM). In data set [12], the “mouse CLint” value is 105. In addition, the “human CLint” value in data set [14] is 93.
As for `CNCc1ccc(-c2ccc(C3(O)C4CN(C)CC3CN(C(=O)Nc3cc(F)cc(F)c3)C4)nc2)c(C#N)c1` [Compound 17, (1R,5S,9r)-9-(5-(2-cyano-4-((methylamino)methyl)phenyl)pyridin-2-yl)-N-(3,5-difluorophenyl)-9-hydroxy-7-methyl-3,7-diazabicyclo[3.3.1]nonane-3-carboxamide], in data set [1], the fraction unbound was 0.45. Besides, the MIC in data set [2] is 3.56 µg/mL (≈ 6.68 µM); in [3], ≤ 0.11 µg/mL; in data set [4], 7.12 µg/mL (≈ 13.4 µM); in [5], 0.22 µg/mL (≈ 0.413 µM); in [6], 0.22 µg/mL (≈ 0.413 µM); in data set [7] it was 28.5 µg/mL (≈ 53.5 µM). Also, the MIC was determined as 3.56 µg/mL (≈ 6.68 µM) in data set [8]; 0.45 µg/mL (≈ 0.845 µM) in [9]; 4 µg/mL (≈ 7.51 µM) in data set [10]; 0.45 µg/mL (≈ 0.845 µM) in [11]; 0.22 µg/mL (≈ 0.413 µM) in data set [13]. The “mouse CLint” value in data set [12] was >145. The “human CLint” value in data set [14] is given as 138.
`CN1CC2CN(C(=O)Nc3cc(F)cc(F)c3)CC(C1)C2(O)c1ccc(-c2ccc(CN)cc2C#N)cn1` [Compound 24, (1R,5S,9r)-9-(5-(4-(aminomethyl)-2-cyanophenyl)pyridin-2-yl)-N-(3,5-difluorophenyl)-9-hydroxy-7-methyl-3,7-diazabicyclo[3.3.1]nonane-3-carboxamide] gave a fraction unbound in data set [1] of 0.38. Further, the MIC was 16 µg/mL (≈ 30.9 µM) in data set [2]; 0.25 µg/mL (≈ 0.482 µM) in data set [3]; 32 µg/mL (≈ 61.7 µM) in data set [4]; 0.5 µg/mL (≈ 0.964 µM) in data set [5]; 0.25 µg/mL (≈ 0.482 µM) in data set [6]; 64 µg/mL (≈ 123 µM) in data set [7]. Moreover, the MIC in data set [8] came out at 2 µg/mL (≈ 3.86 µM); in [9] it was 1 µg/mL (≈ 1.93 µM); in [10], 2 µg/mL (≈ 3.86 µM); in data set [11] it was 2 µg/mL (≈ 3.86 µM); in [13], 0.25 µg/mL (≈ 0.482 µM). The “mouse CLint” value in data set [12] is given as >145. Moreover, the “human CLint” value in data set [14] is 144.

The fraction unbound is the share of the substance not bound to proteins or other matrix. As usually defined, the MIC is the least concentration at which growth counts as inhibited.
